Tests used:
Format in all cases: biochemical
EGFR (d746-750/T790M) = target: T1, EGFR (d746-750/T790M) (Homo sapiens, UniProt P00533, DEL746-750/T790M); assay: EGFR (d746-750/T790M) kinase inhibitory activity (in vitro); conditions: recombinant human protein, ATP 1.5 μM
T1 construct: purchased Carna Biosciences, Inc
Procedure: (§1) The measurement method was as follows. The compounds I-1, I-2, I-3, I-4, I-5, I-6, I-7, I-8, and I-9 were each dissolved in dimethylsulfoxide (DMSO), and then each serially diluted with DMSO. Next, the EGFR (T790M/L858R) protein, substrate peptide (final concentration: 250 nM), magnesium chloride (final concentration: 10 mM), manganese chloride (final concentration: 10 mM), ATP (final concentration: 1 μM), and the diluted DMSO solution of each compound (final concentration of DMSO: 2.5%) were added to a kinase reaction buffer (Carna Biosciences, Inc.), and the mixture was incubated at 25° C. for 120 minutes for kinase reaction. EDTA was added thereto to a final concentration of 24 mM to thereby terminate the reaction. Then, a detection solution containing europium (Eu)-labeled anti-phosphorylated tyrosine antibody PT66 (PerkinElmer) and SureLight APC-SA (PerkinElmer) was added, and the resulting mixture was allowed to stand at room temperature for 2 hours or more. Finally, the intensity of fluorescence under the excitation light with a wavelength of 337 nm was measured by a PHERAstar FS (BMG LABTECH) at two wavelengths of 620 nm and 665 nm. The level of phosphorylation of each test sample was calculated from the fluorescence intensity ratio of the two wavelengths in DMSO control and in the test sample, and the compound concentration at which phosphorylation was inhibited by 50% was determined as the IC50 value (nM) of each compound.
2) Measurement of EGFR (d746-750/T790M) Kinase Inhibitory Activity
The inhibitory activities of the compounds I-1, I-2, I-3, I-4, I-5, I-6, I-7, I-8, and I-9 for EGFR (d746-750/T790M) kinase were measured.
(§2) The materials were as follows. The EGFR (d746-750/T790M) was a purified recombinant human EGFR (d746-750/T790M) protein purchased from Carna Biosciences, Inc. The final concentration of ATP was 1.5 μM. As for other conditions, the same materials and methods as those used in the measurement of EGFR (T790M/L858R) kinase inhibitory activity were used to determine the IC50 value (nM) of each compound.

EGFR (L858R) = target: T2, EGFR (L858R) (Homo sapiens, UniProt P00533, L858R); assay: EGFR (L858R) kinase inhibitory activity (in vitro); conditions: recombinant human protein, ATP 4 μM
T2 construct: purchased Carna Biosciences, Inc
Procedure: as §1
3) Measurement of EGFR (L858R) Kinase Inhibitory Activity
The inhibitory activities of the compounds I-1, I-2, I-3, I-4, I-5, I-6, I-7, I-8, and I-9 for EGFR (L858R) kinase were measured.
as §2, with “(L858R)” for “(d746-750/T790M)”, “4” for “1.5”

EGFR (T790M/L858R) = target: T3, EGFR (T790M/L858R) (Homo sapiens, UniProt P00533, L858R/T790M); assay: EGFR (T790M/L858R) kinase inhibitory activity (in vitro); conditions: for IC50: recombinant human protein, ATP 1 μM, 120 minutes; for inhibitory activities for EGFR (L858R), EGFR (d746-750), EGFR (T790M/L858R) and EGFR (d746-750/T790M), in words: summary of Table 1, all four mutant kinases
T3 construct: purchased Carna Biosciences, Inc
Procedure: 1) Measurement of EGFR (T790M/L858R) Kinase Inhibitory Activity
The inhibitory activities of the compounds I-1, I-2, I-3, I-4, I-5, I-6, I-7, I-8, and I-9 for EGFR (T790M/L858R) kinase were measured.
The materials were as follows. The substrate peptide was a biotinylated peptide (biotin-EEPLYWSFPAKKK) synthesized by reference to the amino acid sequence of FL-Peptide 22 (a reagent for LabChip® Series; Caliper Life Sciences, Inc.). The EGFR (T790M/L858R) was a purified recombinant human EGFR (T790M/L858R) protein purchased from Carna Biosciences, Inc.
as §1

EGFR (WT) = target: T4, EGFR (WT) (Homo sapiens, UniProt P00533); assay: EGFR (WT) kinase inhibitory activity (in vitro); conditions: for IC50: cytoplasmic domain of human EGFR (WT), ATP 4.7 μM, substrate peptide 500 nM; for inhibitory activities for EGFR (WT) compared with the mutant EGFR proteins, in words: summary of Table 1
T4 construct: the cytoplasmic domain of human EGFR (WT); FLAG (N); made in house; host or cells: baculovirus expression system, insect Sf9 cells
Procedure: as §1
The inhibitory activities of the compounds I-1, I-2, I-3, I-4, I-5, I-6, I-7, I-8, and I-9 on EGFR (WT) kinase were measured.
The materials were as follows. As the EGFR (WT), the cytoplasmic domain of human EGFR (WT) in which a FLAG tag was fused to the N-terminus was expressed in a baculovirus expression system using insect Sf9 cells, and purified with anti-FLAG antibody agarose (Sigma-Aldrich). The final concentration of the substrate peptide was 500 nM, and the final concentration of ATP was 4.7 μM. As for other conditions, the same materials and methods as those used in the measurement of EGFR (T790M/L858R) kinase inhibitory activity were used to determine the IC50 value (nM) of each compound.

EGFR (d746-750) = target: T5, EGFR (d746-750) (Homo sapiens, UniProt P00533, DEL746-750); assay: EGFR (d746-750) kinase inhibitory activity (in vitro); conditions: recombinant human protein, ATP 5 μM, 90 minutes
T5 construct: purchased Carna Biosciences, Inc
Procedure: as §1
4) Measurement of EGFR (d746-750) Kinase Inhibitory Activity
The inhibitory activities of the compounds I-1, I-2, I-3, I-4, I-5, I-6, I-7, I-8, and I-9 for EGFR (d746-750) kinase activity were measured.
as §2, with “(d746-750)” for “(d746-750/T790M)”, “5” for “1.5”, “μM. The incubation time for the kinase reaction was 90 minutes.” for “μM.”

T2 sequence (P00533 25-1210 L858R): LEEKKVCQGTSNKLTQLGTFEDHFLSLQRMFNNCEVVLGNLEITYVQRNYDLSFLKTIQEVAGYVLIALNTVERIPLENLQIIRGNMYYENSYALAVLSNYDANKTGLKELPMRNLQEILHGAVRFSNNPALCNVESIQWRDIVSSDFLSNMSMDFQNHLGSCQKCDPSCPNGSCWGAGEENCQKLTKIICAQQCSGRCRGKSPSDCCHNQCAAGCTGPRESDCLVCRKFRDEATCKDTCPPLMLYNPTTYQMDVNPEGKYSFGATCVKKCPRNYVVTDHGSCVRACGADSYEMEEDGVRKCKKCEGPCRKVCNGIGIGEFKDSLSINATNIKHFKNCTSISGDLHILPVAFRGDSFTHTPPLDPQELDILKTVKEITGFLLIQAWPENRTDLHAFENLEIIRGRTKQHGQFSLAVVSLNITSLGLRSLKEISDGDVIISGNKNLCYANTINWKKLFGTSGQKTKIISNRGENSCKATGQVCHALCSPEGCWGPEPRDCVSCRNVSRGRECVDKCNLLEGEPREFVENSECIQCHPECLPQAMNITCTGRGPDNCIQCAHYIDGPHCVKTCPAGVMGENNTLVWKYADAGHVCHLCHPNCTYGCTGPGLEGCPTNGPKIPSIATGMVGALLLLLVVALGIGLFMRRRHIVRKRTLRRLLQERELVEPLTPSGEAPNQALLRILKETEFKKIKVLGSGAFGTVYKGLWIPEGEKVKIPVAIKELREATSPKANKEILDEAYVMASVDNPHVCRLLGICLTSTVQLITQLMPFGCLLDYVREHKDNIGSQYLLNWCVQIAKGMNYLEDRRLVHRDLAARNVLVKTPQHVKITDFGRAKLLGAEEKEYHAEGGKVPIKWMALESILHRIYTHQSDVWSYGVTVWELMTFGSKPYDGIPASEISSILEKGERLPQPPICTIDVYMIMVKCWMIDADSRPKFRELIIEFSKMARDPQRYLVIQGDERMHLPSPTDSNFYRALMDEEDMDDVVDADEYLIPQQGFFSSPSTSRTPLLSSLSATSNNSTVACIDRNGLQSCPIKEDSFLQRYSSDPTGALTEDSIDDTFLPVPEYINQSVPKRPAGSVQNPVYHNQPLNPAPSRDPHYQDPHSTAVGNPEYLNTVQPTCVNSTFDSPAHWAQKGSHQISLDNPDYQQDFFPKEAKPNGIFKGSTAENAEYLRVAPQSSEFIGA
T3 sequence (P00533 25-1210 T790M/L858R): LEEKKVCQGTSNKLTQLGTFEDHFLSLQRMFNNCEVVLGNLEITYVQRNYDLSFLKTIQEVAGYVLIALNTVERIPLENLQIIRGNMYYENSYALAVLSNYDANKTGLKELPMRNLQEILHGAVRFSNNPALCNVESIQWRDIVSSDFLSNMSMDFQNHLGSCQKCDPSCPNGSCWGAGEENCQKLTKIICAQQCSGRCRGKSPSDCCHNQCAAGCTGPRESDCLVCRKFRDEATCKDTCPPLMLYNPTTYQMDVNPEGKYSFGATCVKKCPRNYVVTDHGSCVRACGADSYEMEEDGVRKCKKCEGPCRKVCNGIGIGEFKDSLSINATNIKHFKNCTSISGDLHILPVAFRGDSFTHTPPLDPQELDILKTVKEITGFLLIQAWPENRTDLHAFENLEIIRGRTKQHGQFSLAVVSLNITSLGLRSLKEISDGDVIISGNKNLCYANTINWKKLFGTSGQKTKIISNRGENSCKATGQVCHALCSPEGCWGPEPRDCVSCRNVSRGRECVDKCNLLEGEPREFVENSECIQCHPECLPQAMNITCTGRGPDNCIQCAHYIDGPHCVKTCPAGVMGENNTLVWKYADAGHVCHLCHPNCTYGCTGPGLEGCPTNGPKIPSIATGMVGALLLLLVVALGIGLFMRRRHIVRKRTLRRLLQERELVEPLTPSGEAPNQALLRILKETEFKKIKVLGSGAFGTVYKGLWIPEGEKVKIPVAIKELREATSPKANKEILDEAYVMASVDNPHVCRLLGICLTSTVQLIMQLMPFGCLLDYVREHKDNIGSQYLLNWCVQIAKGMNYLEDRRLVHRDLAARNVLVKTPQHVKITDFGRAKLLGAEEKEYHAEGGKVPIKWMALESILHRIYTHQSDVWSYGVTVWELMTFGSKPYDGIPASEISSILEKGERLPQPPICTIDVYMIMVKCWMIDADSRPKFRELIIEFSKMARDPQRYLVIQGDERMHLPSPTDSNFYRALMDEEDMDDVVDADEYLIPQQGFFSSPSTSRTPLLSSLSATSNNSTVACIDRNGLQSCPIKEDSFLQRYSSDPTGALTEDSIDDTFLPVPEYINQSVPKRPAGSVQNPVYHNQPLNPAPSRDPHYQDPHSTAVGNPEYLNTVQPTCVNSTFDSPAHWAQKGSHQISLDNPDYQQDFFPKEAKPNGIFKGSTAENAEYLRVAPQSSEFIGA
T5 sequence (P00533 with tags, fused parts or gaps DEL746-750 limits assumed): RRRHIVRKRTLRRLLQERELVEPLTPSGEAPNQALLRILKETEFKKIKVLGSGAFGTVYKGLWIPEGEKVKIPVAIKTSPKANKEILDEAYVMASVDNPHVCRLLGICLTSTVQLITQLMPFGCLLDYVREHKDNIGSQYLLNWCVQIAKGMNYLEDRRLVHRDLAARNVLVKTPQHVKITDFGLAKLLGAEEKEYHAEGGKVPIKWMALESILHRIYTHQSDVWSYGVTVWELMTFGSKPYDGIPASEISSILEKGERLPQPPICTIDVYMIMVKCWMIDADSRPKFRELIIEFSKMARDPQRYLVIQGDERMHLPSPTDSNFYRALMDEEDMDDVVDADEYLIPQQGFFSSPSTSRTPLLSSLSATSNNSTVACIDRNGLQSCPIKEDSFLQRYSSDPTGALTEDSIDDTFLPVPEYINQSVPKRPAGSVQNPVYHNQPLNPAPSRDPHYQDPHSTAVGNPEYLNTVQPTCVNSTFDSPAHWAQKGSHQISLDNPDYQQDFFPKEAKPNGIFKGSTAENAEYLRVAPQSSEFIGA
T4 sequence (P00533 669-1210 limits assumed): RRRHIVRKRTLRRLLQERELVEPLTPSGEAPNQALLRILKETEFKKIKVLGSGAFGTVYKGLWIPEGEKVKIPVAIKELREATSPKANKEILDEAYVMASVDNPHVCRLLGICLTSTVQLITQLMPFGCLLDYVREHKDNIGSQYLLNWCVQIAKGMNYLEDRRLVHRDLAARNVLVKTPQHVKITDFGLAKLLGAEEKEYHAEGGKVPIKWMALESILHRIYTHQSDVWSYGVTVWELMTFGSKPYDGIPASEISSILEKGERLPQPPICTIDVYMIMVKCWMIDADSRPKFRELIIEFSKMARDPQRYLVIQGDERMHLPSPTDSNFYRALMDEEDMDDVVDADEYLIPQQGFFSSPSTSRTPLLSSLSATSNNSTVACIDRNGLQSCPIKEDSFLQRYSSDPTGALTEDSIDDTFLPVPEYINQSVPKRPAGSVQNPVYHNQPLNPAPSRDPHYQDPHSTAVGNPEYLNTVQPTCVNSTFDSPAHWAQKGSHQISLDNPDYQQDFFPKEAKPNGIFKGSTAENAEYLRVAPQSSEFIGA
T1 sequence (P00533 with tags, fused parts or gaps DEL746-750/T790M limits assumed): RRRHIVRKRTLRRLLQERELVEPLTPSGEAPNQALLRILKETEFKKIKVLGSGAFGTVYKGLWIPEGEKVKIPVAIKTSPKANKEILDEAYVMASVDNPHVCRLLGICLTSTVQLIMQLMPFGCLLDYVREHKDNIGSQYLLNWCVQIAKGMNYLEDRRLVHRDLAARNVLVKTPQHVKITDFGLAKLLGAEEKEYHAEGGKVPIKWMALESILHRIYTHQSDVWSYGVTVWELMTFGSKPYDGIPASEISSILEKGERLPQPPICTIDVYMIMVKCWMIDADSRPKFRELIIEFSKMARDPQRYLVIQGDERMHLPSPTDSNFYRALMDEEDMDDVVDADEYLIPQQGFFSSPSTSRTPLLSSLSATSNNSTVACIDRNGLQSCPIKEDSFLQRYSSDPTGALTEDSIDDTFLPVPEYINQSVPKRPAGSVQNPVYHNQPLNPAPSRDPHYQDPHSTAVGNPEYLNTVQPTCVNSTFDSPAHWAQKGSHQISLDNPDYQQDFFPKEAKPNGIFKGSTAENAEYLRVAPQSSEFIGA

SMILES	IC50 (EGFR (d746-750/T790M)) [nM]	IC50 (EGFR (L858R)) [nM]	IC50 (EGFR (T790M/L858R)) [nM]	inhibitory activities for EGFR (L858R), EGFR (d746-750), EGFR (T790M/L858R) and EGFR (d746-750/T790M), in words (EGFR (T790M/L858R))	IC50 (EGFR (WT)) [nM]	IC50 (EGFR (d746-750)) [nM]	inhibitory activity for these EGFR kinases, in words (EGFR (T790M/L858R); all EGFR kinases of Test Example 1)	inhibitory activities for EGFR (WT) compared with the mutant EGFR proteins, in words (EGFR (WT))
C=CC(=O)N[C@@H]1CCc2c(-c3cnc4ccccc4c3)c3c(N)ncnc3n2C1 (single isomer, unassigned) [Compound I-1]	2.8	14	5.3	potent inhibitory activities	170	13		lower than those for the above mutant EGFR proteins
Nc1ncnc2c1c(-c1cccc(NC(=O)c3ccccc3)c1)c1n2CCCC1 [Comp. Ex. 1, N-(3-(4-amino-6,7,8,9-tetrahydropyrimido[5,4-b]indolizin-5-yl)phenyl)benzamide, reference compound]	> 5000	> 5000	> 5000		> 5000	1500	almost no inhibitory activity	
CN(C)C/C=C/C(=O)NC1CCc2c(-c3cnc4ccccc4c3)c3c(N)ncnc3n2C1 (stereo not shown) [Compound I-4, (E)-N-(4-amino-5-(quinolin-3-yl)-6,7,8,9-tetrahydropyrimido[5,4-b]indolizin-8-yl)-4-(dimethylamino)-2-butenamide]	4.1	12	6.7	potent inhibitory activities	120	10		lower than those for the above mutant EGFR proteins
Nc1ncnc2c1c(-c1cnc3ccccc3c1)c1n2C[C@@H](NC(=O)/C=C\Cl)CC1 [Compound I-6, (S,Z)—N-(4-amino-5-(quinolin-3-yl)-6,7,8,9-tetrahydropyrimido[5,4-b]indolizin-8-yl)-3-chloroacrylamide]	1.2	2.9	1.2	potent inhibitory activities	41	3.6		lower than those for the above mutant EGFR proteins
C=CC(=O)N[C@H]1CCCc2c(-c3cnc4ccccc4c3)c3c(N)ncnc3n2C1 [Compound I-8, (S)-N-(4-amino-5-(quinolin-3-yl)-7,8,9,10-tetrahydro-6H-pyrimido[5′,4′:4,5]pyrrolo[1,2-a]azepin-9-yl)acrylamide]	13	41	18	potent inhibitory activities	490	20		lower than those for the above mutant EGFR proteins
C=CC(=O)N[C@@H]1CCCc2c(-c3cnc4ccccc4c3)c3c(N)ncnc3n2C1 [Compound I-9, (R)-N-(4-amino-5-(quinolin-3-yl)-7,8,9,10-tetrahydro-6H-pyrimido[5′,4′:4,5]pyrrolo[1,2-a]azepin-9-yl)acrylamide]	82	350	160	potent inhibitory activities	3600	270		lower than those for the above mutant EGFR proteins

Stronger by IC50 (EGFR (d746-750/T790M)), values ahead:

IC50 (EGFR (d746-750/T790M)) [nM]	IC50 (EGFR (L858R)) [nM]	IC50 (EGFR (T790M/L858R)) [nM]	inhibitory activities for EGFR (L858R), EGFR (d746-750), EGFR (T790M/L858R) and EGFR (d746-750/T790M), in words (EGFR (T790M/L858R))	IC50 (EGFR (WT)) [nM]	IC50 (EGFR (d746-750)) [nM]	inhibitory activity for these EGFR kinases, in words (EGFR (T790M/L858R); all EGFR kinases of Test Example 1)	SMILES	inhibitory activities for EGFR (WT) compared with the mutant EGFR proteins, in words (EGFR (WT))
0.3	0.7	0.4	potent inhibitory activities	5.9	0.5		Nc1ncnc2c1c(-c1cnc3ccccc3c1)c1n2C[C@@H](NC(=O)/C=C/Cl)CC1 [Compound I-5, (S,E)-N-(4-amino-5-(quinolin-3-yl)-6,7,8,9-tetrahydropyrimido[5,4-b]indolizin-8-yl)-3-chloroacrylamide]	lower than those for the above mutant EGFR proteins
0.5	2.9	1.4	potent inhibitory activities	33	1.8		C=CC(=O)N[C@H]1CCc2c(-c3cnc4ccccc4c3)c3c(N)ncnc3n2CC1 [Compound I-7, (S)-N-(4-amino-5-(quinolin-3-yl)-7,8,9,10-tetrahydro-6H-pyrimido[5′,4′:4,5]pyrrolo[1,2-a]azepin-8-yl)acrylamide]	lower than those for the above mutant EGFR proteins

Reference: patent publication US8889666B2, “Quinolyl pyrrolo pyrimidyl condensed-ring compound and salt thereof” (Taiho Pharmaceutical Co., Ltd., priority 2012, dated 2014)
